BigSolDB 2.1

O=C1Nc2ccccc2C1=O
Settings	solubility (mole fraction)
in PEG-400, 298.15 K	0.0985
in PEG-400, 308.15 K	0.109
in PEG-400, 318.15 K	0.121
in PEG-400, 328.15 K	0.132
in PEG-400, 338.15 K	0.144

solubility (mole fraction)
Settings	in ethanol	in ethyl acetate	in ethylene glycol	in isopropanol	in propylene glycol	in sec-butanol	in transcutol	in water
298.15 K	0.00409	0.00568	0.00754	0.00419	0.00673	0.00516	0.523	5.14e-05
308.15 K	0.00506	0.00738	0.0092	0.00545	0.00827	0.00596	0.539	8.08e-05
318.15 K	0.0065	0.00926	0.011	0.00694	0.01	0.0071	0.561	0.000113
328.15 K	0.00755	0.0111	0.0127	0.00867	0.0112	0.00814	0.581	0.000152
338.15 K	0.00897	0.013	0.0146	0.0105	0.0133	0.00899	0.598	0.000202
